According to PubChem BioAssay (NCI):
Where “and” joins values, the source holds several entries; their conditions need not be identical. Equal entries are not always repeated.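 Values below derive from 48-hour exposures of cells grown in 96-well plates, with endpoints linearly interpolated between the two concentrations bracketing the appropriate inhibition level. GI50 = concentration required for 50% inhibition of growth. TGI: total growth inhibition.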

Columns and labels:
Assay in all cases: NCI anticancer screen, dose series, 48 h
OVCAR-4 ovarian = tested on: OVCAR-4 ovarian
CAKI-1 renal = tested on: CAKI-1 renal
MDA-MB-435 = tested on: MDA-MB-435
IGROV1 ovarian = tested on: IGROV1 ovarian
LOX IMVI melanoma = tested on: LOX IMVI melanoma
KM12 colon = tested on: KM12 colon
UO-31 renal = tested on: UO-31 renal
SF-295 CNS = tested on: SF-295 CNS
SF-268 CNS = tested on: SF-268 CNS
ACHN renal = tested on: ACHN renal

| Structure (SMILES) | GI50 (OVCAR-4 ovarian) | TGI (OVCAR-4 ovarian) | GI50 (CAKI-1 renal) | TGI (CAKI-1 renal) | GI50 (MDA-MB-435) | TGI (MDA-MB-435) | GI50 (IGROV1 ovarian) | TGI (IGROV1 ovarian) | GI50 (LOX IMVI melanoma) | TGI (LOX IMVI melanoma) | GI50 (KM12 colon) | TGI (KM12 colon) | GI50 (UO-31 renal) | TGI (UO-31 renal) | GI50 (SF-295 CNS) | TGI (SF-295 CNS) | GI50 (SF-268 CNS) | TGI (SF-268 CNS) | GI50 (ACHN renal) | TGI (ACHN renal) |
| --- | --- | --- | --- | --- | --- | --- | --- | --- | --- | --- | --- | --- | --- | --- | --- | --- | --- | --- | --- | --- |
| CN1CCN(C(=S)SCN2C(=O)c3ccccc3S2(=O)=O)CC1 | 23.2 µM | 72.3 µM | 51.9 µM | > 100 µM | 28.2 µM | 99.4 µM | 44.8 µM | > 100 µM | 11.6 µM | 36.9 µM | 25.3 µM | > 100 µM | 94.6 µM | > 100 µM | > 100 µM | > 100 µM | 37.4 µM | > 100 µM | 41.3 µM | > 100 µM |
| CN(C)c1ccc(Sc2ccc3nc(N)nc(N)c3c2)cc1 | 1.76 µM | 17.1 µM | 2.03 µM | 16.8 µM | 0.542 µM | 14.2 µM | 0.67 µM | 14.2 µM | 0.3 µM | 13.6 µM | 1.16 µM | 12.2 µM | 1.12 µM | 13.6 µM | 0.537 µM | 14.1 µM | 0.604 µM | 14.3 µM | 0.52 µM | 7.39 µM |
| N#Cc1ccc(N2Cc3cc(Cl)ccc3OC3=C2C(=O)N(Cc2ccccc2)C3=O)cc1 | 1.41 µM | 3.26 µM | 1.39 µM | 2.78 µM | 1.34 µM | 3.27 µM | 2.19 µM | 4.88 µM | 1.47 µM | 2.85 µM | 2.7 µM | 8.01 µM | 1.32 µM | 2.61 µM | 5.22 µM | 20.4 µM | 1.75 µM | 3.89 µM | 0.87 µM | 2.2 µM |
| COC(=O)Nc1nc2ccc(Sc3ccc(NC(=O)Nc4cc(C(F)(F)F)ccc4F)cc3)cc2[nH]1 | 3.64 µM | 10.7 µM | 3.86 µM | 18.8 µM | 0.605 µM | 2.71 µM | 3.52 µM | 11.1 µM | 1.5 µM | 6.16 µM | 0.113 µM | 3.99 µM | 5.9 µM | 19.8 µM | 1.96 µM | 7.52 µM | 3.89 µM | 9.6 µM | 3.58 µM | 10.2 µM |
| O=C(NO)C(O)C(O)C(O)C(O)CO (configuration not stated) | > 100 µM | > 100 µM | 31.3 µM | > 100 µM | > 100 µM | > 100 µM | > 100 µM and 23.3 µM | > 100 µM and 80.2 µM | > 100 µM and 94.8 µM | > 100 µM | > 100 µM and 53.2 µM | > 100 µM | > 100 µM | > 100 µM | – | > 100 µM | > 100 µM | > 100 µM | > 100 µM | > 100 µM |
| O=C(Nc1ccccc1)Nc1ccccc1CNc1nc(Nc2ccc(OCCN3CCCC3)cc2)ncc1Cl | 1.81 µM | 7.84 µM | 6.1 µM | 12.4 µM | 3.1 µM | 9.58 µM | 7.02 µM | 15.4 µM | 1.02 µM | 2.11 µM | 2.15 µM | 7.97 µM | 2.57 µM | 10.3 µM | 7.24 µM | 14 µM | 6.2 µM | 16.6 µM | 1.85 µM | 6.83 µM |
| COc1ccc(S(=O)(=O)NCCNc2nccc(-c3c(-c4ccccc4)nc4sccn34)n2)cc1 | 3.62 µM | > 100 µM | 1.29 µM | > 100 µM | 1.22 µM | > 100 µM | 2.13 µM | > 100 µM | 3.94 µM | > 100 µM | 0.513 µM | > 100 µM | 0.706 µM | > 100 µM | 6.52 µM | > 100 µM | 3.74 µM | > 100 µM | 2.02 µM | > 100 µM |
| O=[N+]([O-])O.[NH-]C1CCCCC1[NH-].[NH-]C1CCCCC1[NH-].[NH-]C1CCCCC1[NH-].[OH-].[OH-].[OH-].[Pt+4].[Pt+4].[Pt+4] (configuration not stated) | – | > 100 µM | 0.222 µM | 9.33 µM | 0.367 µM | 6.3 µM | 0.258 µM | 19.4 µM | 0.467 µM | > 85.7 µM | 4.05 µM | > 100 µM | 0.373 µM | 15.5 µM | 0.971 µM | > 66.8 µM | 0.791 µM | > 50.2 µM | 0.164 µM | – |
| O=[N+]([O-])c1cccc(-c2ncc(-c3ccc(Cl)cc3Cl)[nH]2)c1 | 3.18 µM | 12.1 µM | 1.82 µM | 4.71 µM | 3.62 µM | 12.2 µM | 6.65 µM | 13.5 µM | 3.35 µM | 8.55 µM | 1.75 µM | 3.41 µM | 5.18 µM | 15.3 µM | 2.14 µM | 5.28 µM | 2.92 µM | 9.57 µM | 7.48 µM | 18.3 µM |
| CN1C(=O)C23CC4=CC=CC(O)C4N2C(=O)C1(CO)SS3 (configuration not stated) | – | 0.524 µM | – | 0.759 µM | – | 2.56 µM | – | 0.297 µM | – | 0.492 µM | – | 0.453 µM | – | 2.03 µM | – | 0.389 µM | – | 0.489 µM | – | 0.334 µM |
